In one experiment the target is T1, TLR9-CpG-DNA interaction (Mus musculus, UniProt Q9EQU3).
T1 construct: mTLR9ect (aa 1-816); made in house
T1 sequence (Q9EQU3 26-816): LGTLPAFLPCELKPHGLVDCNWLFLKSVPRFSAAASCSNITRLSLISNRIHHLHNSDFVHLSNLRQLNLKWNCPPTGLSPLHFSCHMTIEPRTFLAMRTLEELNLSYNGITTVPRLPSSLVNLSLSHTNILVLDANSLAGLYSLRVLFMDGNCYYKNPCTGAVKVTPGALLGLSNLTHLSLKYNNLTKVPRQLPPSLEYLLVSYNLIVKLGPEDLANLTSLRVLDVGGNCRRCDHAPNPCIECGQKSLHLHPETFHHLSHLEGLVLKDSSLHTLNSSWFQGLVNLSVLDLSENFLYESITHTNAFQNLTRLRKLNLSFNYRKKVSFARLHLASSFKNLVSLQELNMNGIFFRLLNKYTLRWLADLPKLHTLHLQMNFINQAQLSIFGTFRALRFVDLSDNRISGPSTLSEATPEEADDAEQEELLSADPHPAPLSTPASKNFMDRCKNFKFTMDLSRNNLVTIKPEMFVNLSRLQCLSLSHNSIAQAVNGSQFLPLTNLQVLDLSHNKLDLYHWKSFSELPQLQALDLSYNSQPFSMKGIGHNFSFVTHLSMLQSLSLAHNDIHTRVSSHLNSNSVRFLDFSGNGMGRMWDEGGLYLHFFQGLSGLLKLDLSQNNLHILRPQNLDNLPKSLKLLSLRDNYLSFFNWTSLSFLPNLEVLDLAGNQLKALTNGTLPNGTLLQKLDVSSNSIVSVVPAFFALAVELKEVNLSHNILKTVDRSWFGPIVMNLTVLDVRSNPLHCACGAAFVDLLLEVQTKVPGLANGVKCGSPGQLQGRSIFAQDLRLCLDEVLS
In words: SPR biosensor analysis of inhibitors on TLR9-CpG-DNA interaction. It counts as binding, murine. As to conditions: for inhibition of binding of TLR9 to CpG-DNA: SPR, 200 nM TLR9, immobilized CpG-DNA 1668. How it is done:
Biotinylated CpG-DNA 1668 (SEQ ID NO:1) and non-CpG-DNA 1668GC (SEQ ID NO:3) were immobilized on streptavidin sensor chip flow cells 1 and 2, respectively.
FIG. 2B is a graph depicting SPR biosensor analysis of quinoquine (QC) on TLR9-PAMP interaction. Biotinylated CpG-DNA 1668 (SEQ ID NO:1) and non-CpG-DNA 1668GC (SEQ ID NO:3) were immobilized on streptavidin sensor chip flow cells 1 and 2, respectively. 200 nM TLR9 and indicated concentrations of quinoquine were injected and sensorgrams recorded.
SPR biosensor analysis. Real-time binding of TLR9 or TLR2 was measured by surface plasmon resonance biosensor technology using the BiaCore X system (Uppsala, Sweden). For analysis of TLR9 and TLR2 interaction, biotinylated CpG-DNA and non-CpG-DNA, or biotinylated Pam3CysK4 and PHCK4, respectively, were loaded in running buffer (50 mM MES, 150 mM NaCl, 1 mM MgCl2 at pH 6.5) on SA chips precoated with streptavidin (Biacore AB, Uppsala, Sweden). Non-CpG-DNA or PHCK4 (Wiesmuller K H et al. (1989) Vaccine 7:29-33) served as reference for CpG-DNA and Pam3CysK4 interaction (structure or sequence in Table 1). […] TLR proteins were introduced at 200 nM or as indicated in 40 μl running buffer at a flow rate of 10 μl/min. Binding was measured at 25° C. for 750 s (delay time 300 s). […] Sensorgrams were recorded and kinetic data were calculated by the BiaCore Evaluation program (Biacore, version 3.0.1). Regeneration of the chip was performed by injection of 10 μl 50 mM NaOH, 1 M NaCl and extensive re-equilibration.

A further experiment relates to murine TLR9. In words: NF-κB luciferase assay, HEK 293 cells transfected with murine TLR9. It counts as cell-based. The note with it: TLR9-transfected HEK 293 cells, 1 μM CpG-DNA, inhibitor added 15 min prior to stimulation. As for the experimental part:
Activation is expressed as fold induction compared to no stimulation. NF-κB luciferase assay. For monitoring transient NF-κB activation, 3×10^6 HEK 293 cells were electroporated at 200 volt and 950 μF with 20 ng of a NF-κB luciferase reporter plasmid (kindly provided by Patrick Baeuerle, Munich, Germany) and 1 μg mTLR2 (kindly provided by Tularik, Inc., South San Francisco, USA), mTLR9, or mTLR9-mut expression plasmid. Cells were seeded at 10^5 cells per well and after overnight culture stimulated with 1 μM phosphorothioated CpG-DNA 1668 (SEQ ID NO:1), 1 μM non-CpG-DNA 1668GC (SEQ ID NO:3), 1 μg/ml Pam[…][…] or 1 μg/ml PHCK4 for further 8 hours. […] Stimulated cells were lysed using reporter lysis buffer (Promega, Mannheim, Germany) and lysates were assayed for luciferase activity using a Berthold luminometer (Wildbad, Germany) according to the manufacturer's instruction.

A further experiment concerns murine TLR2. In words: NF-κB luciferase assay, HEK 293 cells transfected with murine TLR2. It counts as cell-based. As to conditions: TLR2-transfected HEK 293 cells, 1 μg/ml Pam3Cys.
Experiment [1] deals with T2, mTLR2ect (TLR2-Pam3Cys interaction) (Mus musculus, UniProt Q9QUN7).
T2 construct: mTLR2ect (aa 1-587); made in house
T2 sequence (Q9QUN7 25-587): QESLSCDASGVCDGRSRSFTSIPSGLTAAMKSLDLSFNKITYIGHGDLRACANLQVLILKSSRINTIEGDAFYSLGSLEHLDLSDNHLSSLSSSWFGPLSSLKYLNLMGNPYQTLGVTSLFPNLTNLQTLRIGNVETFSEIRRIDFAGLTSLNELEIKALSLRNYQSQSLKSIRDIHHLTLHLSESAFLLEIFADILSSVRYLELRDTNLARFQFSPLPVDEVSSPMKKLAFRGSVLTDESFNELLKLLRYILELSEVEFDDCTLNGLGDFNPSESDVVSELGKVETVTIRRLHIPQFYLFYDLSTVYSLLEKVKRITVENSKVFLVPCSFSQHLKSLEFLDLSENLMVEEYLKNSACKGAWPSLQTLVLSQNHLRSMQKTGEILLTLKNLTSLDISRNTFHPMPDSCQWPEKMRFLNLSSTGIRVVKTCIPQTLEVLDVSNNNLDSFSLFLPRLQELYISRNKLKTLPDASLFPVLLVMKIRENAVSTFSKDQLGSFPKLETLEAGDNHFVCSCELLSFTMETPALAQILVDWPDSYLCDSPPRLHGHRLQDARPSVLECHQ
In words: SPR biosensor analysis of TLR2-Pam3Cys binding. Also noted: species or system murine. The note with it: PHC as reference. A general note: In SPR one partner is held on a chip, and binding of the other changes the refractive index at the surface.

Ends that are not written are not given here. * marks the point of attachment. X1 = 2,3‑bis(palmitoyloxy)‑(2RS)‑propyl, CCCCCCCCCCCCCCCC(=O)OCC(C*)OC(=O)CCCCCCCCCCCCCCC; Palmitoyl = CCCCCCCCCCCCCCCC(=O)*

On to `CCN(CC)CCCC(C)Nc1ccnc2cc(Cl)ccc12` (stereo not drawn) [chloroquine], for which the “inhibition of binding of TLR9 to CpG-DNA” value on TLR9-CpG-DNA interaction is “dose-dependently inhibit”. For the same compound, the “inhibition of TLR9-driven NF-κB activation” value in the experiment with murine TLR9 was “dose-dependently inhibit”. Moreover, the “inhibition of Pam3Cys-driven cellular activation” value in the experiment with murine TLR2 is given as “inhibited neither”.
With `CCN(CC)CCCC(C)Nc1c2ccc(Cl)cc2nc2ccc(OC)cc12` (stereo not drawn) [quinacrine], the “potency in blocking TLR9-CpG-DNA interaction and cellular activation, compared with chloroquine” value at TLR9-CpG-DNA interaction (SPR and TLR9-transfected HEK 293 cells) was “more potent”. Moreover, the “inhibition of binding of TLR9 to CpG-DNA” value at TLR9-CpG-DNA interaction is “dose-dependently inhibit”. Moreover, in experiment [1] (200 nM TLR2, immobilized Pam3Cys), the “inhibition of TLR2-Pam3Cys binding” value is on record as “inhibited neither”. Besides, the “inhibition of TLR9-driven NF-κB activation” value in the experiment with murine TLR9 is reported as “dose-dependently inhibit”. For the same compound, the “inhibition of Pam3Cys-driven cellular activation” value in the experiment with murine TLR2 is reported as “inhibited neither”.
With “S-(2,3-bis(palmitoyloxy)-(2-RS)-propyl)-N-palmitoyl-(R)-Cys-(S)-Ser-(S)-Lys(4) (Palmitoyl-C(X1)SKKKK; also: biotinylated (site not given here)) [Pam3Cys]”, the “Binding of TLR2 to Pam3Cys” value in experiment [1] was “specific”.

The values above are taken from patent US20050100983A1, “Cell-free methods for identifying compounds that affect toll-like receptor 9 (TLR9) signaling” (Coley Pharmaceutical GmbH, priority 2003, published 2005).
